According to patent US20090062387A1, “METHOD OF PREVENTING NEPHROCALCINOSIS” (priority 2007, published 2009):

Tested on: Sprague-Dawley rats
Assay: Citrate in rats with ischemia/reperfusion injury or sham operation on a high phosphate diet with intermittent dehydration
Assay type: in vivo, rat
Details: day 60
Method: A total of 48 male and female Sprague-Dawley rats (150-200 g body weight at start of experiment) were divided in eight groups (A to H) containing 6 animals each (Table 1). On day 1 of the experiment groups A, B, E and F got 30 minutes of bilateral renal ischemia reperfusion injury, while control groups C, D, G and H were sham operated (12) (Table 1). The rats were given 48 hours to recover and BUN and serum creatinine levels were then determined.
On day 3 all groups (A to H) were put on a high phosphorus diet (NIH-07 diet, see reference #6) for 60 days. All groups were dehydrated for 8 hours once a week. While groups B, D, F and H received citrate (2% wt) in their drinking water, the other groups had access to regular tap water, except during periods of dehydration. As rats typically consume a daily average of 10 ml of water per 100 g of body weight, each rat of groups B, D, F and H received an approximate daily dosage of 2 g of citrate per kg of body weight.
On day 30 arterial blood samples were collected for pH, BUN and serum creatinine measurements.
On day 60 all animals were sacrificed. Arterial blood samples were collected for serum pH, phosphorus, BUN and creatinine measurements. Bladder urine samples were collected for pH measurements. Kidneys were longitudinally dissected, formalin fixed and paraffin embedded for generation of light microscopic sections. Additional paraffin embedded tissue sections were stained with “von Kossa” stain for calcium crystal identification and LM tissue sections were scored for acute tubular injury as described elsewhere.
Statistically significant differences between experimental groups were determined using Bonferroni t-tests and analysis of variance.

O=C(O)CC(O)(CC(=O)O)C(=O)O [citrate]
Decrease of serum phosphorus levels (all groups (male/female, I/R or sham), high phosphate diet, citrate in drinking water): 30%
Effect on serum pH (all study groups): did not have a significant effect
Effect on urine pH (all study groups): did not have a significant effect
Histology: tubular injury, casts and calcium phosphate crystals (female I/R rats with citrate supplementation): focal tubular dilation but no casts and no calcium phosphate crystals
Histology: tubular morphology (female sham operated rats, without vs with citrate): no significant difference in tubular morphology
Histology: morphologic changes of ATN (male I/R rats with citrate supplementation): markedly reversed
Serum BUN levels (renal function) (male and female rats with I/R, high phosphate diet, citrate 2% wt in drinking water): returned BUN levels to near control values
Histology: tubular injury and cast formation (male sham operated rats with citrate supplementation): markedly decreased tubular injury and cast formation
